Test results from patent US8999964B2, “TGR5 modulators and methods of use thereof” (Intercept Pharmaceuticals, Inc., priority 2008, dated 2015).
Read-outs that look alike come from different tables or passages of the source. Marks after values point to notes of the source that are not given here.

Columns and labels:
bovine serum albumin [1] = molecular target: T1, bovine serum albumin (Bos taurus, UniProt P02769); settings: cited from earlier work
[2] = pH 1
[3] = […] NaCl water solution; *values from literature; cited from earlier work
hFXR = molecular target: T2, hFXR (Homo sapiens, UniProt Q96RI1); assay: Alphascreen coactivator recruitment assay on FXR; settings: Table 6; coactivator recruitment (Alphascreen)
T2 sequence (Q96RI1 262-486 limits assumed): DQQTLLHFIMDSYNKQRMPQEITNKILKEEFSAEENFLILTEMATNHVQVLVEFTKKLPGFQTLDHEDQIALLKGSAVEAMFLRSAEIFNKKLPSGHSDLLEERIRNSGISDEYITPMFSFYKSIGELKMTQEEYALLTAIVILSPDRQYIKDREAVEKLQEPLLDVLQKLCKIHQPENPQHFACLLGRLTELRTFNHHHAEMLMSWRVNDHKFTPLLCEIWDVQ
Protocol: Activity on FXR was assayed by using Alphascreen technology in a coactivator recruitment assay. AlphaScreen is a bead-based chemistry assay used to study biomolecular interactions. Binding of molecules captured on the beads leads to an energy transfer from one bead to the other, ultimately producing a luminescent signal. When the partners interact, chemical energy is transferred from Donor to Acceptor beads and a signal is produced. Upon bile acids stimulation the GST-FXR-LBD interacts with the Src-1 peptide. Anti-GST-coated Acceptor beads were used to capture the GST-fusion FXR-LBD whereas the biotinylated-SRC-1 peptide was captured by the streptavidin Donor beads. Upon illumination at 680 nm chemical energy is transferred from Donor to Acceptor beads across the complex streptavidin-Donor/Src-1-Biotin/GSTFXR-LBD/Anti-GST-Acceptor and a signal is produced. The assay was performed in white, low-volume, 384-well Optiplates (PerkinElmer) using a final volume of 25 μl containing final concentrations of 10 nM of purified GST-tagged FXR-LBD protein, 30 nM biotinylated Src-1 peptide, 20 μg/ml anti-GST acceptor beads acceptor beads and 10 μg/ml of streptavidin donor bead (PerkinElmer). […] After the addition of the detection mix (acceptor and donor beads), the plates were incubated in the dark for 4 h at room temperature and then were read with an Envision microplate analyzer (PerkinElmer). […]

HepG2 cells [4] = test system: HepG2 cells
PPARδ = molecular target: T3, PPARδ (Homo sapiens, UniProt Q03181); assay: PPARδ activation, NR selectivity assay; settings: Table 6
T3 sequence (Q03181 211-439 limits assumed): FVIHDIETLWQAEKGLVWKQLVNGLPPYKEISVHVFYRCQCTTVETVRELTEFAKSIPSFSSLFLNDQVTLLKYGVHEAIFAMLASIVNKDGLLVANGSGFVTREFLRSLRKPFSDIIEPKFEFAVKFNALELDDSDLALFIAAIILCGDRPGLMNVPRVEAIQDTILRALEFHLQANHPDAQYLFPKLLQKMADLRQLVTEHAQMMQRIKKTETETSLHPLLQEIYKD

LXRα = molecular target: T4, LXRα (Homo sapiens, UniProt Q13133); assay: LXR coactivator recruitment (Alphascreen); assay type: biochemical; settings: Table 6
T4 sequence (Q13133 1-447): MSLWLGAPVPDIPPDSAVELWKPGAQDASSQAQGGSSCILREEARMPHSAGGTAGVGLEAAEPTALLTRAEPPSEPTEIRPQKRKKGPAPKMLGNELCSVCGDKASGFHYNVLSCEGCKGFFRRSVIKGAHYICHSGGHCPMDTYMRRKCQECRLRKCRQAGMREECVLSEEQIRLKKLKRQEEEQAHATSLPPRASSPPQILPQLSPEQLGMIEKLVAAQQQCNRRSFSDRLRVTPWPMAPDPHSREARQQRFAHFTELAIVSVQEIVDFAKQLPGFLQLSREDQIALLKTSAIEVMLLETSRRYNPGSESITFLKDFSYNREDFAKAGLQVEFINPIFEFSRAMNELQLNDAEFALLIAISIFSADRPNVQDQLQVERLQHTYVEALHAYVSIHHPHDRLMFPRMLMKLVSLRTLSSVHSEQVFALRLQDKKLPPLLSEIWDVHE

VDR = molecular target: T5, VDR (Homo sapiens, UniProt P11473); assay: VDR activation, NR selectivity assay; assay type: biochemical; settings: Table 6
T5 construct: purchased Invitrogen
T5 sequence (P11473 127-423 limits assumed): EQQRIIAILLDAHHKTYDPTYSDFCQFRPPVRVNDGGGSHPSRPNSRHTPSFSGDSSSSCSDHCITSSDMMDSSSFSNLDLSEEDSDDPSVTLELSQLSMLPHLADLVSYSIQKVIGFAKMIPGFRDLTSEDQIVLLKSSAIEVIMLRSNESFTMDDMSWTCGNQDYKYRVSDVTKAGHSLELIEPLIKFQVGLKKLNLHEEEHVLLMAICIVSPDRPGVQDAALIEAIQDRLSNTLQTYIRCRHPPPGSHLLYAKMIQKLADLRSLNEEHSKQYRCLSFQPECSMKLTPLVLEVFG

bovine serum albumin [5] = molecular target: T1, bovine serum albumin; assay: Albumin binding by equilibrium dialysis; assay type: in vitro ADME; parameters: 5% bovine serum albumin-saline solution (pH 7.2); from tissue; host or cells: bovine serum (by the name of the product); settings: 100 μM BA in 5% bovine serum albumin-saline, pH 7.2
Protocol: The extent of albumin binding was evaluated by equilibrium dialysis at a fixed BA-albumin ratio. Each BA was dissolved at a concentration of 100 μM in 5% bovine serum albumin-saline solution (pH 7.2) and left to stand for 24 h at 25° C. Two milliliters of this solution was dialyzed in cellulose sacs having a molecular weight cut-off of 12,000-14,000 Dalton against 25 ml of saline solution. The system was equilibrated by gently shaking for 72 h at 25° C. BA concentrations of the dialyzed solution (corresponding to the free unbound fraction) and of the starting solution were determined with HPLC-ESI-MS/MS in the same conditions of the previous analysis.
The percentage of albumin binding was calculated from the initial BA concentration and from the unbound concentration in the dialyzed fraction.

[6] = Critical micellar concentration by surface tension measurements; assay type: physicochemical; settings: […] NaCl water solution
Protocol: The critical micellar concentration (CMC) was determined by surface tension (ST) measurements using a maximum bubble-pressure method which give surface tension values slightly affected by potential impurities […] static methods. […] The surface tension values were plotted against the logarithm of the bile salt concentration; the regression lines corresponding to the two parts of the curve (monomeric and micellar phases) were calculated using the method of least squares, and the intersection of the lines was taken as the CMC value. From the ST vs concentration curves the value of the surface tension at the CMC (equilibrium between monomers and multimers species) was also calculated giving information about the detergency power which is related to the size of the micelles with associate surface tension lowering capacity. The CMC was evaluated by surface tension measurements in non equilibrium conditions i.e. in conditions that impurities slightly affect the surface tension results (FIG. 6). […] The presence of a hydroxyl group in the C-16 beta position reduces the hydrophobic area responsible for back to back interaction, which is to form micelles and therefore, the micelles are small and poorly detergent. This property confers to the molecule a low toxicity when accumulated in a given biological fluid or organ.

[7] = pH 8
Protocol: (§1) The octanol/water partition coefficient was measured for molecules in their ionized form and therefore the carboxy analogues were studied at a relatively high pH (8 to 9) to ensure full ionization of the carboxyl group. The 1-Octanol/water partition coefficient (log P) was evaluated using a conventional shake-flask procedure. […] The aqueous buffer was previously pre-saturated with 1-octanol, 5 ml of 1-octanol pre-saturated with water was then added and the samples were left to equilibrate for 2 weeks under continuous stirring at room temperature. After centrifugation the two phases were carefully separated. […] The flow rate was 150 μal/min and the column was maintained at 45° C.

CAR = molecular target: T6, CAR (Homo sapiens, UniProt Q14994); assay: CAR coactivator recruitment (Lanthascreen); assay type: biochemical; settings: Table 6; *: data representing inverse agonism; read-out: CAR Activation EC50
T6 construct: purchased Invitrogen
T6 sequence (Q14994 109-352 limits assumed): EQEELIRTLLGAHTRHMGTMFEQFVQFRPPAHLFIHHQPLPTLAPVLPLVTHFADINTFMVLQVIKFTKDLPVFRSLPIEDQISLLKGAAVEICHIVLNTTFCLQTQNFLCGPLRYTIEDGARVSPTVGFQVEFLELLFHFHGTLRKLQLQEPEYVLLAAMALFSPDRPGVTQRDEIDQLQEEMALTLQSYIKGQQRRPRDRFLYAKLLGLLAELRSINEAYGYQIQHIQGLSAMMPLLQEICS

[8] = previous study, cited from earlier work
HepG2 cells [9] = assay: HepG2 apoptosis (caspase-3 activation); assay type: cell-based; settings: Homo sapiens, HepG2, 4 h, read-out: APOPTOSIS Caspase-3 activation EC50
HepG2 cells [10] = assay: HepG2 necrosis (LDH release); assay type: cell-based; settings: Homo sapiens, HepG2, 4 h, read-out: NECROSIS LDH release EC50
HepG2 cells [11] = assay: HepG2 cytotoxicity (ATP decrease, ATP-Lite); settings: read-out: CYTOTOXICITY ATP decrease EC50, 4 h
intestinal bacteria = assay: In vitro metabolic stability in human stools culture; assay type: in vitro ADME
Protocol: Homogenized fresh human stools (500 mg) were transferred into sterile vials to which 5 mL of sterilized chopped meat-glucose medium (Scott Lab., Fiskville, R.I.) was added. BAs were then added at a final concentration of 0.05 mM. Vials were incubated at 37° C.; then, at 0, 1, 2, 4, 8 and 24 h after the addition of the BA, the reaction was stopped with 150 μL of 30% KOH. The samples were centrifuged at 3500 rpm for 10 min; from the supernatant the BA were isolated by C-18 solid-phase extraction and analyzed by TLC and HPLC-ES-MS/MS.
Thin-layer chromatography (TLC), utilizing silica gel 0.25 mm thickness plates (Merck, Darmstat, Germany), was employed as the first screening test. The solvent system used for the separation of conjugated BA was composed of propionic acid/isoamyl acetate/water/N-propanol (3:4:1:2, v/v/v/v; solvent I), and that of the unconjugated BA was acetic acid/carbon tetrachloride/isopropyl ether/isoamyl acetate/water/N-propanol/benzene (1:4:6:8:2:2, v/v/v/v/v/v; solvent II).

in vitro = settings: human
[12] = 1-Octanol/water partition coefficient (shake-flask); settings: bile acids as ionized species, pH 8
Protocol: as §1

[13] = Bile fistula rat, femoral (iv) infusion: bile flow, biliary secretion, metabolism; settings: iv infusion, bile fistula rat

T1 sequence (P02769 25-607): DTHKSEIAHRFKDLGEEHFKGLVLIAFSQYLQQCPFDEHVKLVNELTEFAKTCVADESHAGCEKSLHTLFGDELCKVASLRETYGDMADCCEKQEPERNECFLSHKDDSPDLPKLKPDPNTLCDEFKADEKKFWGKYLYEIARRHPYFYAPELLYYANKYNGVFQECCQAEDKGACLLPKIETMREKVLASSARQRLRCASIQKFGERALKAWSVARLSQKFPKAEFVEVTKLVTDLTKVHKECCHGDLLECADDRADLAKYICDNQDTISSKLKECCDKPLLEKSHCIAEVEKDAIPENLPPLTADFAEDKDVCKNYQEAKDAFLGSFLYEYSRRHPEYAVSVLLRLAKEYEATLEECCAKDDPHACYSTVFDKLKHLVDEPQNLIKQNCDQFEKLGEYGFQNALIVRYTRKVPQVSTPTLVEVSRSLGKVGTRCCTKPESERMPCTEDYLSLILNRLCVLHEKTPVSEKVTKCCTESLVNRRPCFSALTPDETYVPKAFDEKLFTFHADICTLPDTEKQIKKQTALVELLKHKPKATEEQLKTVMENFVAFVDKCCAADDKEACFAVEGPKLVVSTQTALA

## C[C@H](CCC(=O)NCCS(=O)(=O)O)[C@H]1CC[C@H]2[C@@H]3[C@H](O)C[C@@H]4C[C@H](O)CC[C@]4(C)[C@H]3CC[C@]12C [TCDCA]
Bovine serum albumin [1]
  Albumin Binding: 70* %
[2]
  Ws: water solubility: hs
[3]
  CMC […] Na+: 3.0* mM

## C[C@H](CCC(=O)O)[C@H]1CC[C@H]2[C@@H]3[C@H](O)C[C@@H]4C[C@H](O)CC[C@]4(C)[C@H]3C[C@H](O)[C@]12C [CA, cholic acid, reference compound]
hFXR
  FXR Activation EC50: No activity

## C[C@H](CCC(=O)O)[C@H]1CC[C@H]2[C@@H]3[C@@H](O)C[C@@H]4C[C@H](O)CC[C@]4(C)[C@H]3CC[C@]12C [UDCA]
HepG2 cells [4]
  EC50: > 1000 µM
[2]
  Ws: water solubility: 7.5 µM
PPARδ
  PPARδ Activation EC50: No activity
LXRα
  LXRα Activation EC50: No activity
VDR
  VDR Activation EC50: No activity
Bovine serum albumin [5]
  Albumin Binding: 94%
[6]
  CMC […] Na+: 6.0 mM
  STCMC: Surface Tension at CMC: 50.5 Dyne/cm
[7]
  LogPA-: 1-octanol-water partition coefficient: 2.2
CAR
  EC50: > 250 µM

## CC1(C)CC[C@]2(C(=O)O)CC[C@]3(C)C(=CC[C@@H]4[C@@]5(C)CC[C@H](O)C(C)(C)[C@@H]5CC[C@]43C)[C@@H]2C1 [OA, oleanolic acid]
[8]; 100 mg/kg/day
  Toxicity in animals: some signs of toxicity
[8]; lower dose than 100 mg/kg/day
  Tolerability in animals: well tolerated

## C[C@H](CCC(=O)O)[C@H]1CC[C@H]2[C@@H]3CC[C@@H]4C[C@H](O)CC[C@]4(C)[C@H]3CC[C@]12C [LCA, lithocholic acid]
HepG2 cells [9]
  EC50: 65 µM
HepG2 cells [10]
  EC50: 105 µM

## CN[C@@H]1C[C@H]2O[C@@](C)([C@@H]1OC)n1c3ccccc3c3c4c(c5c6ccccc6n2c5c31)C(=O)NC4 [Staurosporine]
HepG2 cells [11]
  EC50: 15 µM

## C[C@H](CCC(=O)NCCS(=O)(=O)O)[C@H]1CC[C@H]2[C@@H]3[C@@H](O)C[C@@H]4C[C@H](O)CC[C@]4(C)[C@H]3CC[C@]12C [TUDCA]
Bovine serum albumin [1]
  Albumin Binding: 67* %
[2]
  Ws: water solubility: hs
[3]
  CMC […] Na+: 2.2* mM

## C[C@H](CCC(=O)O)[C@H]1CC[C@H]2[C@@H]3[C@H](O)C[C@@H]4C[C@H](O)CC[C@]4(C)[C@H]3CC[C@]12C [CDCA, chenodeoxycholic acid, reference compound]
Intestinal bacteria
  Metabolism in human stool cultures: almost completely metabolized
Intestinal bacteria; 7α-dehydroxylation, 0.05 mM, 37° C.
  Half-life time in human stool cultures: almost one hour
In vitro
  EC50 at 4 h: 650 µM
Bovine serum albumin [5]
  Albumin Binding: 93%
[12]
  LogPA-: 1-octanol-water partition coefficient: 2.2
HepG2 cells [9]
  EC50: 890 µM
[6]
  CMC […] Na+: 3.2 mM
  STCMC: Surface Tension at CMC: 45.5 Dyne/cm
HepG2 cells [10]
  EC50: > 1000 µM
[13]
  Bile flow with respect to control: No significant differences
[13]; control 70
  Maximum bile flow rate: 4.8 mL/h/kg

## C[C@H](CCC(=O)O)[C@H]1CCC2C3C(CC[C@@]21C)[C@@]1(C)CC[C@@H](O)CC1[C@@H](C)[C@@H]3O (some centres unmarked) [Compound 6MUDCA]
Bovine serum albumin [1]
  Albumin Binding: 80* %
[3]
  CMC […] Na+: 4.2* mM
